US9512107B2, “Therapeutically active compositions and their methods of use” (Agios Pharmaceuticals, Inc., priority 2012, dated 2016)
Substitutions are numbered along the chain they refer to.

Experiments:
[1] = test system: U87MG pLVX-IDH2 R140Q-neo cells; experiment: U87MG pLVX-IDH2 R140Q-neo cell based assay, 2-HG in media by LC-MS at 48 hours; conditions: Homo sapiens, U-87 MG
In short: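 2-HG secreted into the medium was measured by LC-MS after 48 h of compound treatment (0.2% DMSO final) of U87MG pLVX-IDH2 R140Q-neo cells in DMEM/10% FBS. The same wells were assayed at 72 h by CellTiter-Glo luminescence for effects on growth.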

[2] = target: T1, IDH2 R140Q (Homo sapiens, UniProt P48735, R140Q); experiment: IDH2 R140Q enzymatic assay (cofactor depletion, similar format); assay type: biochemical; conditions: read-out: Enz R140Q
T1 sequence (P48735 40-452 R140Q): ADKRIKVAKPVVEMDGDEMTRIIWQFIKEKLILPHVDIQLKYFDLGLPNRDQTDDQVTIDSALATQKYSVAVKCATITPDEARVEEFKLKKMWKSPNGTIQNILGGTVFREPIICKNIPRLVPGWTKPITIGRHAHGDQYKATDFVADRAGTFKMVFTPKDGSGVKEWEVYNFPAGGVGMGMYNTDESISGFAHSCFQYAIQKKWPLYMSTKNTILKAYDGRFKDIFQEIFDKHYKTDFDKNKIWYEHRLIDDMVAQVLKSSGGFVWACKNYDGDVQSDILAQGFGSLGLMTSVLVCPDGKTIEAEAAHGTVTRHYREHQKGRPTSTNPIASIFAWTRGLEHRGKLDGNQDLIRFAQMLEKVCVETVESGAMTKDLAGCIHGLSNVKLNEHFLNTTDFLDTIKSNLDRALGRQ

[3] = target: T2, IDH2 R172K (Homo sapiens, UniProt P48735, R172K); experiment: IDH2 R172K enzymatic assay (NADPH cofactor depletion, diaphorase/resazurin readout); assay type: biochemical; conditions: read-out: Enz R172K
T2 sequence (P48735 40-452 R172K): T1 sequence (P48735 40-452 R140Q) with Q101R, R133K
In short: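 Cofactor depletion format: enzyme + compound 1 h RT; add substrate mix (50 μM NADPH, 6.3 mM α-KG); react 1 h RT; quench with stop mix (36 μg/ml diaphorase, 60 μM resazurin); read resorufin fluorescence as residual NADPH.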

Row | IC50 [1] [nM] | IC50 [2] [nM] | IC50 [3] [nM] | Structure (SMILES)
1 | < 100 | 100 to 1000 | < 100 | CC(F)(F)c1cc(Nc2nc(NCC3CC3)nc(-c3cccc(C(C)(F)F)n3)n2)ccn1 [Compound 610, N2-(cyclopropylmethyl)-6-(6-(1,1-difluoroethyl)pyridin-2-yl)-N4-(2-(1,1-difluoroethyl)pyridin-4-yl)-1,3,5-triazine-2,4-diamine]
2 | < 100 | 100 to 1000 | 100 to 1000 | CC(F)(F)c1cccc(-c2nc(NCC3CC3)nc(Nc3cccc(S(C)(=O)=O)c3)n2)n1 [Compound 611, N2-(cyclopropylmethyl)-6-(6-(1,1-difluoroethyl)pyridin-2-yl)-N4-(3-(methylsulfonyl)phenyl)-1,3,5-triazine-2,4-diamine]
3 | < 100 | 100 to 1000 | < 100 | CC(F)(F)c1cccc(-c2nc(NCC3CC3)nc(Nc3cc(F)cc(S(C)(=O)=O)c3)n2)n1 [Compound 612, N2-(cyclopropylmethyl)-6-(6-(1,1-difluoroethyl)pyridin-2-yl)-N4-(3-fluoro-5-(methylsulfonyl)phenyl)-1,3,5-triazine-2,4-diamine]
4 | < 100 | 100 to 1000 | < 100 | CC(C)Nc1nc(Nc2cc(F)cc(S(C)(=O)=O)c2)nc(-c2cccc(C(C)(F)F)n2)n1 [Compound 613, 6-(6-(1,1-difluoroethyl)pyridin-2-yl)-N2-(3-fluoro-5-(methylsulfonyl)phenyl)-N4-isopropyl-1,3,5-triazine-2,4-diamine]
5 | < 100 | 100 to 1000 | < 100 | CC(C)Nc1nc(Nc2cc(Cl)cc(S(C)(=O)=O)c2)nc(-c2cccc(C(C)(F)F)n2)n1 [Compound 614, N2-(3-chloro-5-(methylsulfonyl)phenyl)-6-(6-(1,1-difluoroethyl)pyridin-2-yl)-N4-isopropyl-1,3,5-triazine-2,4-diamine]
6 | < 100 | 100 to 1000 | 100 to 1000 | CC(C)(C)Nc1nc(Nc2cc(Cl)cc(S(C)(=O)=O)c2)nc(-c2cccc(C(C)(F)F)n2)n1 [Compound 615, N2-(tert-butyl)-N4-(3-chloro-5-(methylsulfonyl)phenyl)-6-(6-(1,1-difluoroethyl)pyridin-2-yl)-1,3,5-triazine-2,4-diamine]
7 | < 100 | 100 to 1000 | < 100 | CC(C)(C)Nc1nc(Nc2cc(F)cc(S(C)(=O)=O)c2)nc(-c2cccc(C(C)(F)F)n2)n1 [Compound 616, N2-(tert-butyl)-6-(6-(1,1-difluoroethyl)pyridin-2-yl)-N4-(3-fluoro-5-(methylsulfonyl)phenyl)-1,3,5-triazine-2,4-diamine]
8 | < 100 | 100 to 1000 | < 100 | N#CC1(c2cc(Nc3nc(NCC4CC4)nc(-c4cccc(C(F)(F)F)n4)n3)ccn2)CC1 [Compound 617, 1-(4-((4-((cyclopropylmethyl)amino)-6-(6-(trifluoromethyl)pyridin-2-yl)-1,3,5-triazin-2-yl)amino)pyridin-2-yl)cyclopropanecarbonitrile]
9 | < 100 | 100 to 1000 | < 100 | CC(F)(F)c1cccc(-c2nc(NCC3CC3)nc(Nc3ccnc(C(C)(C)C#N)c3)n2)n1 [Compound 618, (4-((4-((cyclopropylmethyl)amino)-6-(6-(1,1-difluoroethyl)pyridin-2-yl)-1,3,5-triazin-2-yl)amino)pyridin-2-yl)-2-methylpropanenitrile]
10 | < 100 | 100 to 1000 | < 100 | CC(F)(F)c1cccc(-c2nc(NCC3CC3)nc(Nc3ccnc(C4(C#N)CC4)c3)n2)n1 [Compound 619, 1-(4-((4-((cyclopropylmethyl)amino)-6-(6-(1,1-difluoroethyl)pyridin-2-yl)-1,3,5-triazin-2-yl)amino)pyridin-2-yl)cyclopropanecarbonitrile]
11 | 100 to 1000 | 100 to 1000 | 1000 to 10000 | CC(C)(O)CNc1nc(Nc2cncc(F)c2)nc(-c2ccccc2F)n1 [Compound 621, 1-(4-(2-fluorophenyl)-6-(5-fluoropyridin-3-ylamino)-1,3,5-triazin-2-ylamino)-2-methylpropan-2-ol]
12 | 100 to 1000 | 100 to 1000 | 100 to 1000 | CC(C)(O)CNc1nc(Nc2ccc(F)nc2)nc(-c2ccccc2F)n1 [Compound 622, 1-(4-(2-fluorophenyl)-6-(6-fluoropyridin-3-ylamino)-1,3,5-triazin-2-ylamino)-2-methylpropan-2-ol]
13 | 100 to 1000 | 100 to 1000 | 1000 to 10000 | CC(C)(O)CNc1nc(Nc2ccnc(F)c2)nc(-c2ccccc2F)n1 [Compound 623, 1-(4-(2-fluorophenyl)-6-(2-fluoropyridin-4-ylamino)-1,3,5-triazin-2-ylamino)-2-methylpropan-2-ol]
14 | < 100 | 100 to 1000 | 100 to 1000 | COc1cccc(-c2nc(Nc3ccnc(C(F)(F)F)c3)nc(NC3COC3)n2)c1F [Compound 624, 6-(2-Fluoro-3-methoxy-phenyl)-N-oxetan-3-yl-N′-(2-trifluoromethyl-pyridin-4-yl)-[1,3,5]triazine-2,4-diamine]
15 | < 100 | < 100 | 100 to 1000 | Fc1cncc(Nc2nc(NC3COC3)nc(-c3ccccc3F)n2)c1 [Compound 625, 6-(2-Fluoro-phenyl)-N-(5-fluoro-pyridin-3-yl)-N′-oxetan-3-yl-[1,3,5]triazine-2,4-diamine]
16 | 100 to 1000 | 100 to 1000 | 1000 to 10000 | Fc1ccc(Nc2nc(NC3COC3)nc(-c3ccccc3F)n2)cn1 [Compound 626, 6-(2-Fluoro-phenyl)-N-(6-fluoro-pyridin-3-yl)-N′-oxetan-3-yl-[1,3,5]triazine-2,4-diamine]
17 | < 100 | < 100 | < 100 | Fc1ccccc1-c1nc(Nc2ccnc(C(F)(F)F)c2)nc(NC2COC2)n1 [Compound 627, 6-(2-Fluoro-phenyl)-N-oxetan-3-yl-N′-(2-trifluoromethyl-pyridin-4-yl)-[1,3,5]triazine-2,4-diamine]
18 | < 100 | < 100 | 100 to 1000 | Fc1cc(Nc2nc(NC3COC3)nc(-c3ccccc3F)n2)ccn1 [Compound 628, 6-(2-Fluoro-phenyl)-N-(2-fluoro-pyridin-4-yl)-N′-oxetan-3-yl-[1,3,5]triazine-2,4-diamine]
19 | < 100 | < 100 | < 100 | Fc1ccccc1-c1nc(Nc2cncc(C(F)(F)F)c2)nc(NC2COC2)n1 [Compound 629, 6-(2-Fluoro-phenyl)-N-oxetan-3-yl-N′-(5-trifluoromethyl-pyridin-3-yl)-[1,3,5]triazine-2,4-diamine]
20 | < 100 | < 100 | < 100 | COc1ccc(F)c(-c2nc(Nc3ccnc(C(F)(F)F)c3)nc(NC(C)C)n2)c1 [Compound 630, 6-(2-Fluoro-5-methoxy-phenyl)-N-isopropyl-N′-(2-trifluoromethyl-pyridin-4-yl)-[1,3,5]triazine-2,4-diamine]
21 | < 100 | < 100 | < 100 | COc1cccc(-c2nc(Nc3ccnc(C(F)(F)F)c3)nc(NC(C)C)n2)c1F [Compound 631, 6-(2-Fluoro-3-methoxy-phenyl)-N-isopropyl-N′-(2-trifluoromethyl-pyridin-4-yl)-[1,3,5]triazine-2,4-diamine]
22 | < 100 | 100 to 1000 | 100 to 1000 | CC(C)Nc1nc(Nc2ccnc(C(C)(C)O)c2)nc(-c2ccccc2F)n1 [Compound 632, 2-(4-((4-(2-fluorophenyl)-6-(isopropylamino)-1,3,5-triazin-2-yl)amino)pyridin-2-yl)propan-2-ol]
23 | < 100 | 100 to 1000 | < 100 | CC(C)Nc1nc(Nc2ccnc(C(F)(F)F)c2)nc(-c2cccc(O)c2F)n1 [Compound 633, 2-Fluoro-3-[4-isopropylamino-6-(2-trifluoromethyl-pyridin-4-ylamino)-[1,3,5]triazin-2-yl]-phenol]
24 | < 100 | 100 to 1000 | < 100 | CC(C)Nc1nc(Nc2ccnc(C(F)(F)F)c2)nc(-c2cc(O)ccc2F)n1 [Compound 634, 4-Fluoro-3-[4-isopropylamino-6-(2-trifluoromethyl-pyridin-4-ylamino)-[1,3,5]triazin-2-yl]-phenol]
